Assay results reported in article PMC11822212, “High-throughput screening identifies Aurora kinase B as a critical therapeutic target for Merkel cell carcinoma” (Nature Communications, 2025).
Read-outs that look alike come from different tables or passages of the source.

Assays:
Test in all cases: qHTS cell viability (CellTiter-Glo, 72 h; primary and follow-up small molecule screen)
Format in all cases: cell-based, human
[1] = system: MCC13 cells (VN-MCC)
[2] = system: MCC26 cells (VN-MCC)
[3] = system: UISO cells (VN-MCC)
[4] = system: WAGA cells (VP-MCC)
[5] = system: MKL-1 cells (VP-MCC)
[6] = system: MKL-2 cells (VP-MCC)
[7] = follow-up screen, MCC13, replicate 1
[8] = follow-up screen, MCC13, replicate 2
[9] = follow-up screen, MCC13, replicate 3
[10] = follow-up screen, MCC26, replicate 1
[11] = follow-up screen, MCC26, replicate 2
[12] = follow-up screen, MCC26, replicate 3
[13] = follow-up screen, UISO, replicate 1
[14] = follow-up screen, UISO, replicate 2
[15] = follow-up screen, UISO, replicate 3
[16] = follow-up screen, WAGA, replicate 1
[17] = follow-up screen, WAGA, replicate 2
[18] = follow-up screen, WAGA, replicate 3
[19] = follow-up screen, MKL-1, replicate 1
[20] = follow-up screen, MKL-1, replicate 2
[21] = follow-up screen, MKL-1, replicate 3
[22] = follow-up screen, MKL-2, replicate 1
[23] = follow-up screen, MKL-2, replicate 2
[24] = follow-up screen, MKL-2, replicate 3

| Structure (SMILES) | Area under the dose-response curve (AUC) MCC13 Replicate 1 [1, 7] | Area under the dose-response curve (AUC) MCC13 Replicate 2 [1, 8] | Area under the dose-response curve (AUC) MCC13 Replicate 3 [1, 9] | Area under the dose-response curve (AUC) MCC26 Replicate 1 [2, 10] | Area under the dose-response curve (AUC) MCC26 Replicate 2 [2, 11] | Area under the dose-response curve (AUC) MCC26 Replicate 3 [2, 12] | Area under the dose-response curve (AUC) UISO Replicate 1 [3, 13] | Area under the dose-response curve (AUC) UISO Replicate 2 [3, 14] | Area under the dose-response curve (AUC) UISO Replicate 3 [3, 15] | Area under the dose-response curve (AUC) WAGA Replicate 1 [4, 16] | Area under the dose-response curve (AUC) WAGA Replicate 2 [4, 17] | Area under the dose-response curve (AUC) WAGA Replicate 3 [4, 18] | Area under the dose-response curve (AUC) MKL-1 Replicate 1 [5, 19] | Area under the dose-response curve (AUC) MKL-1 Replicate 2 [5, 20] | Area under the dose-response curve (AUC) MKL-1 Replicate 3 [5, 21] | Area under the dose-response curve (AUC) MKL-2 Replicate 1 [6, 22] | Area under the dose-response curve (AUC) MKL-2 Replicate 2 [6, 23] | Area under the dose-response curve (AUC) MKL-2 Replicate 3 [6, 24] | further results |
| --- | --- | --- | --- | --- | --- | --- | --- | --- | --- | --- | --- | --- | --- | --- | --- | --- | --- | --- | --- |
| CC[C@H]1CN2CCc3cc(OC)c(OC)cc3[C@@H]2C[C@@H]1C[C@H]1NCCc2cc(OC)c(OC)cc21 [Emetine] | 319.8 | 335.5 | 310.8 | 331.2 | 367.3 | 295.0 | 267.1 | 258.2 | 246.0 | 343.0 | 356.1 | 341.6 | 316.9 | 311.7 | 312.3 | 297.3 | 300.1 | 296.5 | – |
| CCCNC(=O)[C@H]1O[C@@H]1C(=O)N[C@H](C(=O)N1CCC[C@H]1C(=O)OC)C(C)CC (stereo partly drawn) [CA-074 Me] | – | – | – | – | – | – | – | – | – | – | – | – | – | – | – | – | – | – | Area under the dose-response curve (AUC) MCC13 Replicate 1 [1]: 449.3; Area under the dose-response curve (AUC) MCC13 Replicate 2 [1]: 470.8; Area under the dose-response curve (AUC) MCC13 Replicate 3 [1]: 430.6; Area under the dose-response curve (AUC) MCC26 Replicate 1 [2]: 401.2; Area under the dose-response curve (AUC) MCC26 Replicate 2 [2]: 420.5; Area under the dose-response curve (AUC) MCC26 Replicate 3 [2]: 371.8; Area under the dose-response curve (AUC) UISO Replicate 1 [3]: 368.5; Area under the dose-response curve (AUC) UISO Replicate 2 [3]: 355.5; Area under the dose-response curve (AUC) UISO Replicate 3 [3]: 334.3; Area under the dose-response curve (AUC) WAGA Replicate 1 [4]: 383.1; Area under the dose-response curve (AUC) WAGA Replicate 2 [4]: 375.3; Area under the dose-response curve (AUC) WAGA Replicate 3 [4]: 378.5; Area under the dose-response curve (AUC) MKL-1 Replicate 1 [5]: 343.4; Area under the dose-response curve (AUC) MKL-1 Replicate 2 [5]: 329.7; Area under the dose-response curve (AUC) MKL-1 Replicate 3 [5]: 317.3; Area under the dose-response curve (AUC) MKL-2 Replicate 1 [6]: 305.9; Area under the dose-response curve (AUC) MKL-2 Replicate 2 [6]: 306.4; Area under the dose-response curve (AUC) MKL-2 Replicate 3 [6]: 348.6 |
| Nc1ncnc2c1ncn2[C@@H]1O[C@H](CO)[C@@H](O)[C@H]1O [Adenosine] | 550.6 | 498.0 | 487.2 | 484.4 | 450.7 | 501.0 | 514.9 | 502.8 | 486.4 | 557.9 | 476.1 | 490.2 | 523.5 | 521.0 | 519.8 | 483.1 | 500.4 | 489.0 | – |
| CO[C@H]1/C=C/O[C@@]2(C)Oc3c(C)c(O)c4c(O)c(c(/C=N/N5CCN(C6CCCC6)CC5)c(O)c4c3C2=O)NC(=O)/C(C)=C\C=C\[C@H](C)[C@H](O)[C@@H](C)[C@@H](O)[C@@H](C)[C@H](OC(C)=O)[C@@H]1C [Rifapentine] | 505.1 | 494.8 | 490.8 | 454.9 | 422.8 | 488.5 | 475.3 | 482.1 | 453.0 | 525.4 | 514.7 | 508.3 | 466.1 | 446.1 | 500.1 | 477.3 | 488.3 | 494.1 | – |
